Measured values as given in patent publication US6872805B2 (Bristol-Myers Squibb Company, priority 2000, dated 2005).
pIC50: −log10 of the molar value.

Molecular target: HCV NS3/4A protease complex (Hepatitis C virus genotype 1a, UniProt P27958, C1454S/C1711G)
Assay: Recombinant HCV NS3/4A protease complex FRET peptide assay (strain not stated)
Format: biochemical

Chain of HCV NS3/4A protease complex (P27958 1027-1711, stated change not applied): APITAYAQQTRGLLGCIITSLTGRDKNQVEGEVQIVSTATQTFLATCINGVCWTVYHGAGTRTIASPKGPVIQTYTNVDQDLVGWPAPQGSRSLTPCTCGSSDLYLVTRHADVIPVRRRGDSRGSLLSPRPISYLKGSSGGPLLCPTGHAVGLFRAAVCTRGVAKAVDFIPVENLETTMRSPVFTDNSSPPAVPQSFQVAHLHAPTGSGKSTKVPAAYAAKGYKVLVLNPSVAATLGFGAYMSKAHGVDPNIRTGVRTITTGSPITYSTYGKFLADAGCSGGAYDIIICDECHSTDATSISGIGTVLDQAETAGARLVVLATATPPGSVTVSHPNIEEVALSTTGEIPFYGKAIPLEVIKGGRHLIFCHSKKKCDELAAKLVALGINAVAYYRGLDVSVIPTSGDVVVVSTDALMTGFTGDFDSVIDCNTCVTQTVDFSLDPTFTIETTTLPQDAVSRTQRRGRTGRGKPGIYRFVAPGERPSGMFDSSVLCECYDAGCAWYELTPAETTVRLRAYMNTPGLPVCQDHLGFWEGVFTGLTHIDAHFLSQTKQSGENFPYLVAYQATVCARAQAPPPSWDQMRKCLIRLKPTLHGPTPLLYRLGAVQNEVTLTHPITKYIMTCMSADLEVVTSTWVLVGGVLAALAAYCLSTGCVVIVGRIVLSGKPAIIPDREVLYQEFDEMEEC
Chain of HCV NS3/4A protease complex (P27958 1027-1711, stated change not applied): as above

Compound C=CC1C[C@]1(NC(=O)[C@@H]1C[C@@H](Oc2cc(-c3ccccc3)nc3cc(OC)ccc23)CN1C(=O)C(NC(=O)OC(C)(C)C)C(C)(C)C)C(=O)NS(=O)(=O)c1ccc(NC(C)=O)cc1 (some centres unmarked) [Compound 58] has a pIC50 (IC50, NS3/4A protease enzyme assay, strain not stated, activity ranges) of over 7.30 and a pIC50 (IC50, strain not stated) of 7.68.
